From US20050197350A1, “Novel quinoline, tetrahydroquinazoline, and pyrimidine derivatives and methods of treatment related to the use thereof” (TAISHO PHARMACEUTICAL CO., LTD., priority 2003, published 2005)

System: MCH receptors
Experiment: MCH receptor activity class (method not given)
Settings: class by percent of control at 10^-7 M or IC50

Structure (SMILES) | class
COc1cc(F)c(CNC[C@H]2CC[C@@H](Nc3nccc(N(C)C)n3)CC2)cc1OC [compound 1321] | 3 (Class 3 The value of percent of control at 10^−7 M was more than 60% or the value of IC50 was more than 200 nM.)
CCc1ccccc1CNC[C@H]1CC[C@@H](Nc2nccc(N(C)C)n2)CC1 [compound 1322] | 3 (Class 3 The value of percent of control at 10^−7 M was more than 60% or the value of IC50 was more than 200 nM.)
CN(C)c1ccnc(N[C@H]2CC[C@@H](CNCc3ccc(N(C)CCC#N)cc3)CC2)n1 [compound 1323] | 2 (Class 2: The value of percent of control at 10^−7 M was from 40% to 60% or the value of IC′50 was from 50 nM to 200 nM.)
CN(C)c1ccnc(N[C@H]2CC[C@@H](CNCc3ccc(OCc4ccc(Br)cc4)cc3)CC2)n1 [compound 1324] | 2 (Class 2: The value of percent of control at 10^−7 M was from 40% to 60% or the value of IC′50 was from 50 nM to 200 nM.)
CCOc1c(Br)cc(Br)cc1CNC[C@H]1CC[C@@H](Nc2nccc(N(C)C)n2)CC1 [compound 1325] | 2 (Class 2: The value of percent of control at 10^−7 M was from 40% to 60% or the value of IC′50 was from 50 nM to 200 nM.)
COc1cccc(OC)c1CN[C@H]1CC[C@@H](Nc2nc3c(c(N(C)C)n2)CCCC3)CC1 [compound 1326] | 3 (Class 3 The value of percent of control at 10^−7 M was more than 60% or the value of IC50 was more than 200 nM.)
CCOc1ccccc1CN[C@H]1CC[C@@H](Nc2nc3c(c(N(C)C)n2)CCCC3)CC1 [compound 1327] | 3 (Class 3 The value of percent of control at 10^−7 M was more than 60% or the value of IC50 was more than 200 nM.)
CN(C)c1nc(N[C@H]2CC[C@@H](NCc3c[nH]c4ccccc34)CC2)nc2c1CCCC2 [compound 1328] | 3 (Class 3 The value of percent of control at 10^−7 M was more than 60% or the value of IC50 was more than 200 nM.)
COc1ccc(OC)c(CN[C@H]2CC[C@@H](Nc3nc4c(c(N(C)C)n3)CCCC4)CC2)c1 [compound 1329] | 3 (Class 3 The value of percent of control at 10^−7 M was more than 60% or the value of IC50 was more than 200 nM.)
COc1ccc(CN[C@H]2CC[C@@H](Nc3nc4c(c(N(C)C)n3)CCCC4)CC2)c2ccccc12 [compound 1330] | 3 (Class 3 The value of percent of control at 10^−7 M was more than 60% or the value of IC50 was more than 200 nM.)
COc1ccc2[nH]cc(CN[C@H]3CC[C@@H](Nc4nc5c(c(N(C)C)n4)CCCC5)CC3)c2c1 [compound 1331] | 1 (Class 1: The value of percent of control at 10^−7 M was less than 40% or the value of IC50 was less than 50 nM.)
COc1ccc2ccccc2c1CN[C@H]1CC[C@@H](Nc2nc3c(c(N(C)C)n2)CCCC3)CC1 [compound 1332] | 3 (Class 3 The value of percent of control at 10^−7 M was more than 60% or the value of IC50 was more than 200 nM.)
COc1cc(Br)cc(CN[C@H]2CC[C@@H](Nc3nc4c(c(N(C)C)n3)CCCC4)CC2)c1O [compound 1333] | 3 (Class 3 The value of percent of control at 10^−7 M was more than 60% or the value of IC50 was more than 200 nM.)
CN(C)c1nc(N[C@H]2CC[C@@H](NCc3c[nH]c4ccc(Br)cc34)CC2)nc2c1CCCC2 [compound 1334] | 3 (Class 3 The value of percent of control at 10^−7 M was more than 60% or the value of IC50 was more than 200 nM.)
COc1ccc(CN[C@H]2CC[C@@H](Nc3nc4c(c(N(C)C)n3)CCCC4)CC2)c(OC)c1 [compound 1335] | 3 (Class 3 The value of percent of control at 10^−7 M was more than 60% or the value of IC50 was more than 200 nM.)
COc1ccc(CN[C@H]2CC[C@@H](Nc3nc4c(c(N(C)C)n3)CCCC4)CC2)c(OC)c1OC [compound 1336] | 3 (Class 3 The value of percent of control at 10^−7 M was more than 60% or the value of IC50 was more than 200 nM.)
COc1cc(CN[C@H]2CC[C@@H](Nc3nc4c(c(N(C)C)n3)CCCC4)CC2)cc(OC)c1O [compound 1337] | 2 (Class 2: The value of percent of control at 10^−7 M was from 40% to 60% or the value of IC′50 was from 50 nM to 200 nM.)
CCOc1cc(CN[C@H]2CC[C@@H](Nc3nc4c(c(N(C)C)n3)CCCC4)CC2)ccc1OC [compound 1338] | 3 (Class 3 The value of percent of control at 10^−7 M was more than 60% or the value of IC50 was more than 200 nM.)
CN(C)c1nc(N[C@H]2CC[C@@H](NCc3c[nH]nc3-c3ccc(C(F)(F)F)cc3)CC2)nc2c1CCCC2 [compound 1339] | 3 (Class 3 The value of percent of control at 10^−7 M was more than 60% or the value of IC50 was more than 200 nM.)
COc1cc(CN[C@H]2CC[C@@H](Nc3nc4c(c(N(C)C)n3)CCCC4)CC2)cc(OC)c1OC [compound 1340] | 3 (Class 3 The value of percent of control at 10^−7 M was more than 60% or the value of IC50 was more than 200 nM.)
COc1cc(CN[C@H]2CC[C@@H](Nc3nc4c(c(N(C)C)n3)CCCC4)CC2)cc(OC)c1 [compound 1342] | 2 (Class 2: The value of percent of control at 10^−7 M was from 40% to 60% or the value of IC′50 was from 50 nM to 200 nM.)
COc1cc(CN[C@H]2CC[C@@H](Nc3nc4c(c(N(C)C)n3)CCCC4)CC2)cc(I)c1O [compound 1343] | 2 (Class 2: The value of percent of control at 10^−7 M was from 40% to 60% or the value of IC′50 was from 50 nM to 200 nM.)

Structure (SMILES) | class
Cc1cc(CN[C@H]2CC[C@@H](Nc3nc4c(c(N(C)C)n3)CCCC4)CC2)cc(C)c1O [compound 1344] | 3 (Class 3 The value of percent of control at 10^−7 M was more than 60% or the value of IC50 was more than 200 nM.)
COc1cccc(CN[C@H]2CC[C@@H](Nc3nc4c(c(N(C)C)n3)CCCC4)CC2)c1 [compound 1345] | 3 (Class 3 The value of percent of control at 10^−7 M was more than 60% or the value of IC50 was more than 200 nM.)
CN(C)c1nc(N[C@H]2CC[C@@H](NCc3ccc(F)c(Br)c3)CC2)nc2c1CCCC2 [compound 1346] | 3 (Class 3 The value of percent of control at 10^−7 M was more than 60% or the value of IC50 was more than 200 nM.)
CC(CCN[C@H]1CC[C@@H](Nc2nc3c(c(N(C)C)n2)CCCC3)CC1)c1ccccc1 (stereo partly shown) [compound 1347] | 3 (Class 3 The value of percent of control at 10^−7 M was more than 60% or the value of IC50 was more than 200 nM.)
Cc1ccc2occ(CN[C@H]3CC[C@@H](Nc4nc5c(c(N(C)C)n4)CCCC5)CC3)c(=O)c2c1 [compound 1348] | 3 (Class 3 The value of percent of control at 10^−7 M was more than 60% or the value of IC50 was more than 200 nM.)
Cc1cc2occ(CN[C@H]3CC[C@@H](Nc4nc5c(c(N(C)C)n4)CCCC5)CC3)c(=O)c2cc1Cl [compound 1349] | 3 (Class 3 The value of percent of control at 10^−7 M was more than 60% or the value of IC50 was more than 200 nM.)
Cc1cc(C)c2occ(CN[C@H]3CC[C@@H](Nc4nc5c(c(N(C)C)n4)CCCC5)CC3)c(=O)c2c1 [compound 1350] | 2 (Class 2: The value of percent of control at 10^−7 M was from 40% to 60% or the value of IC′50 was from 50 nM to 200 nM.)
Cc1cc(CN[C@H]2CC[C@@H](Nc3nc4c(c(N(C)C)n3)CCCC4)CC2)c(C)n1-c1ccccc1 [compound 1351] | 3 (Class 3 The value of percent of control at 10^−7 M was more than 60% or the value of IC50 was more than 200 nM.)
CCCCC/C(=C\c1ccccc1)CN[C@H]1CC[C@@H](Nc2nc3c(c(N(C)C)n2)CCCC3)CC1 [compound 1353] | 3 (Class 3 The value of percent of control at 10^−7 M was more than 60% or the value of IC50 was more than 200 nM.)
COc1ccccc1/C=C/CN[C@H]1CC[C@@H](Nc2nc3c(c(N(C)C)n2)CCCC3)CC1 [compound 1354] | 3 (Class 3 The value of percent of control at 10^−7 M was more than 60% or the value of IC50 was more than 200 nM.)
CN(C)c1nc(N[C@H]2CC[C@@H](NCc3coc4ccc(Cl)cc4c3=O)CC2)nc2c1CCCC2 [compound 1355] | 3 (Class 3 The value of percent of control at 10^−7 M was more than 60% or the value of IC50 was more than 200 nM.)
CN(C)c1nc(N[C@H]2CC[C@@H](NCc3cncc(-c4ccc(F)cc4)c3)CC2)nc2c1CCCC2 [compound 1356] | 3 (Class 3 The value of percent of control at 10^−7 M was more than 60% or the value of IC50 was more than 200 nM.)
CCOC(=O)c1[nH]c2cc(Cl)cc(Cl)c2c1CN[C@H]1CC[C@@H](Nc2nc3c(c(N(C)C)n2)CCCC3)CC1 [compound 1357] | 1 (Class 1: The value of percent of control at 10^−7 M was less than 40% or the value of IC50 was less than 50 nM.)
COC(=O)c1ccccc1Sc1nc2sccn2c1CN[C@H]1CC[C@@H](Nc2nc3c(c(N(C)C)n2)CCCC3)CC1 [compound 1358] | 3 (Class 3 The value of percent of control at 10^−7 M was more than 60% or the value of IC50 was more than 200 nM.)
CN(C)c1nc(N[C@H]2CC[C@@H](NCc3c[nH]nc3-c3ccc(F)cc3)CC2)nc2c1CCCC2 [compound 1359] | 1 (Class 1: The value of percent of control at 10^−7 M was less than 40% or the value of IC50 was less than 50 nM.)
CSc1ccc(CN[C@H]2CC[C@@H](Nc3nc4c(c(N(C)C)n3)CCCC4)CC2)cc1 [compound 1360] | 3 (Class 3 The value of percent of control at 10^−7 M was more than 60% or the value of IC50 was more than 200 nM.)
CN(C)c1nc(N[C@H]2CC[C@@H](NCc3cccc4ccccc34)CC2)nc2c1CCCC2 [compound 1361] | 3 (Class 3 The value of percent of control at 10^−7 M was more than 60% or the value of IC50 was more than 200 nM.)
COc1cc(CN[C@H]2CC[C@@H](Nc3nc4c(c(N(C)C)n3)CCCC4)CC2)ccc1O [compound 1362] | 3 (Class 3 The value of percent of control at 10^−7 M was more than 60% or the value of IC50 was more than 200 nM.)
CN(C)c1nc(N[C@H]2CC[C@@H](NCc3ccc(F)c(Cl)c3)CC2)nc2c1CCCC2 [compound 1363] | 3 (Class 3 The value of percent of control at 10^−7 M was more than 60% or the value of IC50 was more than 200 nM.)
COc1cccc(OC)c1CNC[C@H]1CC[C@@H](Nc2nc3c(c(N(C)C)n2)CCCC3)CC1 [compound 1364] | 1 (Class 1: The value of percent of control at 10^−7 M was less than 40% or the value of IC50 was less than 50 nM.)
CCOc1ccccc1CNC[C@H]1CC[C@@H](Nc2nc3c(c(N(C)C)n2)CCCC3)CC1 [compound 1365] | 2 (Class 2: The value of percent of control at 10^−7 M was from 40% to 60% or the value of IC′50 was from 50 nM to 200 nM.)
